Test results: US20220264883A1, “IMIDAZOTHIAZOLE COMPOUNDS AND METHODS FOR TREATING PLANT NEMATODE INFECTIONS” (The Governing Council of the University of Toronto, priority 2019, published 2022)
Several values for one entry are separate records, joined by “and”; a condition that tells them apart may be missing. Equal values may be shown once. Read-outs that look alike come from different tables or passages of the source.

Key:
[1] = test system: M. incognita infective juveniles; test: Meloidogyne incognita dose-response experiments (infective J2 juveniles, FIG. 2); assay type: in vivo; details: for nematicidal activity on M. incognita infective juveniles: 5, 15, 45 micromolar, third day after water rinse
Experimental: M. incognita (Kofoid & White) Chitwood Race 1 (originally isolated in Maryland) was used for all experiments, and were maintained on pepper (Capsicum annuum L.) cv. PA-136 in a greenhouse as previously described^64. Infective J2 juveniles were collected as described in ref. 65. The microwell dose-response experiments were carried out similarly to previously described protocols^64, 66. In brief, 100 J2 s, in 10 μL of deionized water, were added to the wells of 96-well polystyrene plates, after which 190 μL of deionized water containing dissolved chemical, or DMSO alone, was added to each well. The final concentration of DMSO in each well was 0.5% (v/v), except for the water only control which contained no DMSO and no added chemicals. The final concentrations of the chemicals for each dose-response experiment were 5, 15, and 45 μM. The wells were covered with a plastic adhesive strip, and the lids of the plates were sealed with parafilm. The plates were incubated at 25° C. The fraction of active worms was quantified by counting the number of mobile and immobile worms after 1 and 2 days of incubation, and then dividing the number of mobile worms by the total number of worms in the well. After 2 days of incubation, the chemicals were removed and replaced with deionized water (i.e. the water rinse) and the fraction of active worms was quantified 1 day later. A failure of the worms to recover after rinsing with water is consistent with them having been killed by the chemical treatment. Four technical replicates were performed for each treatment.

C. elegans = C. elegans minimum lethal concentration dose-response; assay type: in vivo, Caenorhabditis elegans; details: Caenorhabditis elegans, C. elegans viability
Experimental: (§1) Forty microliters of an HB101 bacterial suspension in liquid NGM (see above) was added to each well of a 96-well flat-bottom culture plate, after which approximately 25 synchronized L1 worms, in 10 μl of M9 buffer (see ref. 59 for the recipe), were added to each well. The synchronized L1 worms were obtained from an embryo preparation performed the previous day (see ref. 59 for the protocol). For the L1 assays, 0.5 μl of chemical solution (or DMSO alone) was immediately added to the wells using a multichannel pipette, the final DMSO concentration is 1% (v/v). The worms were incubated for 3 days at 20° C. and the number of viable animals was counted. […] Although the counts were performed after 3 days of incubation in the chemical, it was noted that the L1s were dead within 24 hours of the addition of the chemicals. For the L2/L3 assays, the worms were incubated in the absence of chemical for 1 day at 20° C. until they reached the L2/L3 stage, at which point chemical was added as described above. The worms were then allowed to incubate for 2 days at 20° C. and the number of viable animals was counted as described for the L1 assay. For the L4 assays, the worms were incubated for 2 days at 20° C. before the addition of chemicals. The L4-stage worms were then incubated in chemical for an additional day before quantifying the number of viable animals. The adult assays were performed the same way as the L4 assays, however HT115 E. coli carrying the empty dsRNA expressing vector L4440 was used in place of HB101 and the worms were cultured at 25° C. as opposed to 20° C. for the entirety of the experiment. The HT115 suspension was made by concentrating a bacterial culture, with an OD600 of ˜ 0.8, five-fold with liquid NGM containing 1 mM IPTG and 100 μg/ml carbenicillin. The HT115 cells were induced with 1 mM IPTG for one hour before concentrating with NGM.
Compounds Ia to Im, dose-response assays were performed with C. elegans. 8 of the compounds killed C. elegans with minimum lethal concentrations less than or equal to 100 μM (Table 6). Compounds Ia, Ic, and Ij were the most potently lethal nematicides in this assay, having minimum lethal concentrations of 6.25 μM and below. The positive control nematicide tioxazafen killed nematodes at 3.13 μM and above.

[2] = test system: C. elegans anthelmintic/nematicide-resistant mutants; test: whole plant or invertebrate; assay type: in vivo; details: Caenorhabditis elegans
Experimental: as §1
The dose-response experiments for the anthelmintic/nematicide-resistant mutants were carried out as described for the L1 dose-response assays. One notable exception is the aldicarb-resistant strain PR1152. This strain grows slowly, and so the viability counts were performed 5 days after addition of the chemical, as opposed to 3 days, to allow the DMSO control worms to reach adulthood.
At least three biological replicates were performed for each dose-response assay. For each biological replicate, two technical replicates were performed and the numbers of viable animals for each technical replicate were combined (i.e. ˜50 worms assayed per concentration). The number of viable worms at each concentration was divided by the corresponding DMSO control value to give the “relative viability” for each concentration. The “relative viability” values were then averaged across the biological replicates. LC50 values were calculated using Graphpad Prism. The concentration values were log-transformed and a four-parameter logistic curve was fitted to the dose-response data by non-linear regression, from which the LC50 values were extracted.

[3] = test system: Haemonchus contortus eggs; test: Haemonchus contortus egg hatching assay; assay type: in vivo; details: for Hatch Rate: 60 μM, 48 hours, ± standard deviation; for reduction of egg hatching relative to the untreated mock control: 60 micromolar, 48-hour treatment
Experimental: Fresh sheep faeces containing eggs of the MHco3(ISE) strain of H. contortus was supplied by Dr. Doug Colwell and Dawn Gray (Lethbridge Research Station, Agriculture and Agri-Food Canada). Experimental infections used to generate this material were carried out using established methods^72, and were approved by the Lethbridge AAFC Animal Care committee and conducted under animal use license ACC1407. Sheep faeces containing H. contortus eggs were stored at 20° C. for no longer than 48 h before harvesting eggs for use. Eggs were isolated from faeces using a standard saturated salt flotation method^61 immediately before each egg hatch assay. Approximately 100 eggs suspended in 100 μl of water were added to each well of a 96-well plate, and the exemplary compounds of the application were tested at 60 μM, 0.6% DMSO (v/v). Egg hatch rates were determined 48 hours after the initial set-up of the assay by the addition of iodine tincture to stop development. Example 13: Arabidopsis thaliana greening experiments

[4] = 120 h, read-out: LC50 in strain PR1152
[5] = read-out: LC50 in strain CB1072
[6] = read-out: LC50 in strain CB3474
[7] = read-out: LC50 in strain CF1038
[8] = read-out: LC50 in strain DA1316
[9] = read-out: LC50 in strain NM1968
[10] = read-out: LC50 in strain RP2674

| Structure (SMILES) | nematicidal activity on M. incognita infective juveniles [1] | inhibitory effects on worm activity compared with tioxazafen ([1]; each time point, every concentration tested) | nematode lethality ([1]; lowest concentration assayed (5 micromolar)) | minimal effective concentration (C. elegans) | LC50 [2, 4] | LC50 [2, 5] | LC50 [2, 6] | LC50 [2, 7] | LC50 [2, 8] | LC50 [2, 9] | LC50 [2, 10] | LC50 ([2]; read-out: LC50 in strain VC731) | Hatch Rate [3] | reduction of egg hatching relative to the untreated mock control [3] | LC50 ([2]; read-out: LC50 in strain RB2119) |
| --- | --- | --- | --- | --- | --- | --- | --- | --- | --- | --- | --- | --- | --- | --- | --- |
| Clc1ccc(-c2cn3ccsc3n2)cc1 [Ia] | demonstrated nematicidal activity at one or more concentrations | outperformed the commercial nematicide tioxazafen | 100% | 1.5 µg/mL | 3.7 µM | 5.7 µM | 6.4 µM | 5.7 µM | 4.6 µM | 4.4 µM | 4.9 µM | 6.4 µM | 1.0 ± 1.7% | 99% | – |
| Fc1ccc(-c2cn3ccsc3n2)cc1 [Ib] | demonstrated nematicidal activity at one or more concentrations | – | – | 25 µM and 5.5 µg/mL | 14.9 µM | 24.3 µM | 17 µM | 16 µM | 14.5 µM | 16 µM | 16.4 µM | 28.5 µM | 0.0 ± 0.0% | completely inhibited egg hatching | 27.5 µM |
| Cc1csc2nc(-c3ccccc3)cn12 [Compound Ie] | – | – | – | > 100 µM and > 21.4 µg/mL | – | – | – | – | – | – | – | – | – | – | – |
